Test results: PMC12314892, “Macrocyclic Phage Display for Identification of Selective Protease Substrates” (Journal of the American Chemical Society, 2025)
“Also recorded” adds a separate entry of the source. *1 amine or outer side, *2 acyl side, *3 side chain or, on linkers, in order; H or OH if unused. Where a SMILES comes first, the peptide text is derived from it. Bridges are numbered along the chain shown (N, C = ends). The star is where a group is joined. X1 = NC(=O)Cc1cc(=O)oc2cc(NC(=O)[C@@H]3CCCN3C(=O)Cn3nc(C[*:1])cc3C[*:2])ccc12; X2 = NC(=O)Cc1cc(=O)oc2cc(NC(=O)[C@@H]3CCCN3C(=O)Cn3nc(C[*:2])cc3C[*:1])ccc12; AMC = Cc1cc(=O)oc2cc(N*)ccc12; Cbz = O=C(OCc1ccccc1)*

Test system: HEK293 Tet-Off cells with inducible FAPα expression
Assay: Live-cell substrate assay
Type: cell-based
Conditions: triplicate; for substrate cleavage in cells (mean slope RFU per minute), in words: HEK293 FAP+ vs doxycycline-suppressed FAP- cells, 1400 cells per well in PBS, 200 μM substrate, 37 °C, 90 min; for substrate cleavage in cells after inhibitor pre-treatment, in words: cells pre-treated 30 min at 37 °C with 1 μM UAMC-1100 (FAPα) or VbP (DPP4) before 200 μM substrate
Description: 7.5. The following commercial substrates were used: zGP-AMC (Bachem,Catalog No.: […]
conducted in Greiner Bio-One black microplates of 384 wells and polystyrene F-bottom (Catalog No.: 784076). All compounds were dissolved in DMSO at a concentration of 10 mM and then diluted into the respective buffer to the desired final concentration. […]
ACC substrates. […]
HEK tet-off FAPα stable clonal cell line, received from the group of Jan Konvalinka, IOCB Prague, was cultured in IMDM medium with L-glutamine (Sigma-Aldrich, 51471C-1000ML), and supplemented with 10% […] and antibiotics – Geneticin G418 400 μg/ml (Roche, G418-RO) and Puromycin 0.5 μg/ml (Corning, MT61385RA) or Doxycycline 100 ng/ml (Sigma-Aldrich, D9891-1G). In general, cells were passaged at least two times after thawing before their use in cellular […]
assays. FAPα expression was suppressed with Doxycycline for at least a week prior to an […]
Live-cell substrate assay
Cells were grown to near confluency and harvested via trypsinization. After dissociation, extra media with serum was added to prevent further trypsinization. To collect the cells, those were centrifuged for 3 min at 500G and media removed. Cells were washed a total of three times with PBS and resuspended in PBS to 100 cells per μL. To perform the activity assay 14 μL of suspended cells in PBS (100 cell/μL) were plated in a black 384-well low volume “V” bottom plate (total of 1400 cells per well) and pre-treated with 2 μL of either vehicle or inhibitors (1 μM final concentration) for 30 min at 37 °C. DMSO was used as the vehicle. The inhibitors used were […]
DPP4 activity, respectively, in addition to other homologous proteases. After this time, 4 μL of the desired substrate was added to a final concentration of 200 μM and the fluorescence was recorded immediately. Fluorescence was measured using a Cytation 3 plate reader (BioTek). All experiments have at least three technical replicates. All assays were conducted at 37°C for 90 min, unless otherwise noted. Fluorescence measurements were performed at ex/em, 355/460 nm for ACC substrates. The substrates velocity was quantified by calculating the slope of the linear […]
3.2 Phage Display Methodology
The library and panning protocol was adapted from Ekanayake et. al.2 […]
The phage encoded library has the terminal sequence AACXXXXXXXCG. The complexity of the library is 1x109. In general a minimum of 5x1010 PFU were used for panning to have 50 copies of each sequence represented at the beginning of panning.
General reagents for phage display
15.5 g of 2X YT broth (1.6% tryptone, 1.0% yeast extract, 0.5% sodium chloride) 500mL of MilliQ water in a 2L flask, autoclaved.
YT media with 30 μg/mL final concentration of chloramphenicol (CA)
15.5 g of 2X YT broth (1.6% tryptone, 1.0% yeast extract, 0.5% sodium chloride) 500 mL of MilliQ water in a 2L flask, autoclaved. Let it cool to room temperature. Add 500 μL of 30 mg/mL chloramphenicol in ethanol.
Agar plates of YT media with chloramphenicol (30 μg/mL CA)
Weight out 31 g of 2X YT broth (1.6% tryptone, 1.0% yeast extract, 0.5% sodium chloride), 15 g of agar and add 1000 mL of MilliQ water. Autoclave. Let it cool down to approximately 55°C and add 1000 μL of 30 mg/mL CA in ethanol. Mix and pour into plates under sterile conditions.

Row | Compound | substrate cleavage in cells (mean slope RFU per minute), in words | substrate cleavage in cells after inhibitor pre-treatment, in words
1 | CC(C)C[C@@H]1NC(=O)[C@H](CC(N)=O)NC(=O)[C@H](CCC(N)=O)NC(=O)[C@H](Cc2ccccc2)NC(=O)[C@H](CO)NC(=O)[C@H](C(C)C)NC(=O)[C@@H](N)CSCc2cc(nn2CC(=O)N2CCC[C@H]2C(=O)Nc2ccc3c(CC(N)=O)cc(=O)oc3c2)CSC[C@@H](C(=O)NCC(N)=O)NC(=O)[C@H](CC(=O)O)NC1=O [FAP-33.2] (H-CVSFQNLDCG-NH2; linker 1-9 via X2; N-terminus assumed) | no activity in cells | –
2 | Cc1cc(=O)oc2cc(NC(=O)[C@@H]3CCCN3C(=O)CN)ccc12 [GP-AMC] (H-Gly-Pro-{AMC}) | – | produced signals in HEK cells even when target proteases were chemically inhibited
3 | Cc1cc(=O)oc2cc(NC(=O)[C@@H]3CCCN3C(=O)CNC(=O)OCc3ccccc3)ccc12 [zGP-AMC] (Cbz-Gly-Pro-{AMC}) | – | processed in the presence of both inhibitors; also recorded: produced signals in HEK cells even when target proteases were chemically inhibited
4 | CC(C)[C@@H]1NC(=O)[C@@H](N)CSCc2cc(n(CC(=O)N3CCC[C@H]3C(=O)Nc3ccc4c(CC(N)=O)cc(=O)oc4c3)n2)CSC[C@@H](C(=O)NCC(N)=O)NC(=O)[C@H](CC(=O)O)NC(=O)[C@H](C)NC(=O)[C@H](CC(N)=O)NC(=O)[C@H](CCC(N)=O)NC(=O)[C@H](Cc2ccccc2)NC(=O)[C@H](CO)NC1=O [FAP-33.2A6] (H-CVSFQNADCG-NH2; linker 1-9 via X1; N-terminus assumed) | selectively cleaved in FAP+ cells | hydrolysis suppressed by the FAPα inhibitor UAMC1100 but not by the DPP4 inhibitor VbP
